Experimental data taken from article PMC8162347, “Bolaamphiphilic Bis-Dehydropeptide Hydrogels as Potential Drug Release Systems” (Gels, 2021).

Assay: Sustained release assay of model cargo from hydrogels
Protocol: Hydrogels containing cationic, anionic, or zwitterionic model drugs were prepared using the same conditions described in Section 2.2 but with the water component (1 mL) being replaced by a methylene blue solution, methyl orange solution, or ciprofloxacin solution. In a modified version of the method described by Abraham et al., water was carefully layered on top of the hydrogel surface. Then, the percentage release of model drug was recorded versus time, over 6 days, through UV absorption measurements or by HPLC and then subsequently fitted to a standard calibration curve (Figure S10 in Supplementary Information). The experiments were also assessed visually (Figure 9). […] In the studies involving the release of methyl orange, a clearly visible release of the anionic dye into the layered water solution was observed from the three hydrogels after several days (Figure 9B,D,F centre). The results for the release of methyl orange were also confirmed quantitatively by UV absorption measurements. Hydrogelators 1 and 3, which contain a phenylalanine residue, release nearly 60% of the anionic methyl orange cargo, whereas hydrogel 2, containing a tyrosine residue, released more than 90%. […] Ciprofloxacin was included as an overall neutral cargo. In experiments involving hydrogels of compounds 1–3 containing ciprofloxacin, the amount of ciprofloxacin present in the above water layer was determined by HPLC at various time-points. Hydrogelators 1, 2, and 3 release 32%, 58%, and 20% of their ciprofloxacin cargo, respectively (Table 4) (Figure S11 in Supplementary Information). As observed for methyl orange, the hydrogel that releases the greatest amount of ciprofloxacin is the hydrogel obtained from compound 2 (Table 4, Figure S11 in Supplementary Information).
To quantitatively evaluate the drug release from hydrogels 1–3, several mathematical models were tested to see which one fits the tested hydrogels. The Korsmeyer–Peppas model is the preferred model for polymeric systems. Korsmeyer described a simple relationship that described drug release from a polymeric system that includes both the diffusion and erosion of the polymer chain. The following equation describes the Korsmeyer–Peppas model: Mt/M = Kt^n
Hydrogels of 1, 2, and 3 were prepared as described in Section 4.2 to form 1 mL hydrogels containing the same concentration of the hydrogelators described above and the appropriate cargo (methylene blue ([…]), methyl orange (0.2 nM), or ciprofloxacin (0.2 nM)), in a slightly modified version of the procedure described by Abraham et al.. After allowing to stand overnight, 1.5 mL of water was carefully added to the surface of the hydrogels. Aliquots of the layered solution (100 μL) were removed at 1 h, 2 h, 3 h, 4 h, 6 h, 24 h, 72 h, and 6 days from the time the water was initially layered on top of the hydrogel. After removing each aliquot, the volume water was immediately replaced by an equal volume of water. The concentration of methylene blue or methyl orange in each aliquot was determined by measuring the absorbance at λmax of the dye (666 nm for methylene blue and 465 nm for methyl orange) using a microplate reader and then converting the value to percentage release (using a standard calibration curve). The concentration of ciprofloxacin in each aliquot was determined using analytical HPLC, where the integrated peak area was converted to a percentage release (using a standard calibration curve). Each experiment was performed in triplicate, and the mean percentage cargo release was plotted against time.

| Structure (SMILES) | K, release rate constant, Korsmeyer–Peppas model (ciprofloxacin release profile) | n, release exponent, Korsmeyer–Peppas model (ciprofloxacin release profile) | K, release rate constant, Korsmeyer–Peppas model (methyl orange release profile) | n, release exponent, Korsmeyer–Peppas model (methyl orange release profile) |
| --- | --- | --- | --- | --- |
| O=C(O)/C(=C/c1ccccc1)NC(=O)[C@H](Cc1ccc(O)cc1)NC(=O)c1ccc(C(=O)N[C@@H](Cc2ccc(O)cc2)C(=O)N/C(=C\c2ccccc2)C(=O)O)cc1 [Compound 2] | 0.0030 | 0.5800 | 0.0900 | 0.2700 |
| O=C(O)/C(=C/c1ccccc1)NC(=O)[C@H](Cc1ccccc1)NC(=O)c1ccc(C(=O)N[C@@H](Cc2ccccc2)C(=O)N/C(=C\c2ccccc2)C(=O)O)cc1 [Compound 1] | 0.0200 | 0.3300 | 0.0200 | 0.4000 |
